Data published in patent US11293019B2, “Chimeric genome engineering molecules and methods” (GFLAS Life Sciences, Inc., priority 2017, dated 2022).
Where two headings read alike, the source gives them in different places.

How the values were obtained:
[1] = tested on: PCR dsDNA product; assay: SpCas9 activity with 1 mM ZnSO4 / Mg2+ deficiency at different pH; format: biochemical; settings: 1 mM ZnSO4, range of pH values
Method: For DNA (50 ng) NbFTa13_4 PCR product, 3 μl (150 ng) was used; for SpCas9-BPNLS (3.3 μg) 1/10 dilution (333 ng), 1.5 μl (0.5 μg) was used; for gRNA (1.5 μg) (NbFTa13_3/4-2), 1/10 dilution (150 ng), 3.5 μg (500 ng) was used; for pH (+1 mM ZnSO4, 2× cutsmart), 10 μl was used; for DW, to 20 μl was used.
For PCR dsDNA product, 150 ng was used; for SpCas9:BPNLS, 1 μg was used; for gRNA, 500 ng was used; for pH titration (100 mM NaCal, 50 mM Tris-HCl+1 mM ZnSO4), 10 ul was used, for DW, up to 20 μl was used.
Activity of SpCas9 and SpCas9-mungbean nuclease chimeric polypeptide was tested in the presence of 1 mM ZnSO4 at a range of pHs.

[2] = tested on: PCR product (901 bp SpyCas9; 1,431 bp FnCpf1); assay: Inactivation of SpyCas9 and FnCpf1 by stop solution / 1 mM ZnSO4, in vitro cleavage time course; format: biochemical
[3] = tested on: human DHCR7; assay: Genome editing after zinc sulfate treatment, HEK293, T7E1 assay; format: cell-based; settings: for % indels: +RNP
Method: (§1) The concentrations of 80 mM 160 mM of zinc sulfate were treated in HEK293 with Cas9 variants. HEK293 cells were harvested at 12 h, 24 h, and 48 h after zinc sulfate treatment. In terms of RNP treatment, HEK293 cells were harvested at 24 h, 36 h, and 60 h.
as §1
Cell culture. HEK 293 cells were maintained in DMEM media with 10% Fetal bovine serum FBS and P/S, at 37° C. in CO2 incubator. 150,000 cells were transferred to a 24 well plate in […] of the growth medium a day before transfection.
Transfection. For Cas9 variants transfection to the cells, purified each Cas9 variant protein was added to up to […] of Opti-MEM serum reduced medium in a micro tube, followed by addition of 120 ng guide RNA. The molar ratio of the guide RNA to Cas9 protein was kept nearly at 1.2:1 ratio(1). The mixture, then, mixed well by gentle tapping and incubated for 10 min at RT. In a separate tube. […] of Lipofectamin 3000 transfection reagent was added to […] of Opti-MEM and […] of the diluted transfection reagent was added to the guide RNA and Cas9 protein mixture, followed by incubation for 15 min at RT and […] mixture was added to the cells.
Genomic DNA extraction. […] Briefly cells were washed with PBS once and treated with T.E., followed by incubation at 37, for 5 min. 1.2 ml of growth media were added to cells to harvest cell and then, spin downed at RT, 250×g, for 5 min.
Amplification of genomic loci of human DHCR7. For amplification of genomic loci of human DHCR7, two different PCR primer pairs were used. […] Genomic DNA was amplified using specific primers and cleaned up using Wizard® SV gel and PCR clean-Up system. 200 ng PCR cleaned-up amplified DNA was added in a PCR-tube, followed by addition of […] of NEB buffer 2 with up to 9 ml of distilled water (D/W). The mixture was then re-annealed in a PCR machine using following condition: 98° C. for 5 min for denaturation; cooling down to 85° C. at −2° C./sec, in turn, to 25° C. at −0.1/sec and kept at 4° C., in order to prevent denaturation of heteroduplex formation of the amplified DNA. […] of T7E1 endonuclease was added to the mixture and incubated at 37° C. for 60 min.
Image Analysis. For analysis of gene modification, 2% gel was used image was obtained with and Alphaimager 2200 image analysis software was used for analysis. % indel was computed with following equation: 1−((1-fraction cleaved) ½)(2).

[4] = tested on: HEK293 cells and plant protoplasts; assay: Summary of knock-out / knock-in performance (HEK293 cells and plant protoplasts); format: cell-based; settings: in vitro and in vivo HEK293 cells
Description: The apparent rates of mutations after the action of CRISPR genome editing tools are relatively low in vivo due to outperformance of error-free repair mechanisms. To enhance both the rate of indel mutation and HR recombination, genome editing tools were constructed by translational fusion of DNA modifying enzymes (DME), DNA binding protein (DBP), or terminal deoxyribonucleotidyl transferase (TdT) at either upstream or downstream of CRISPR genome editing enzymes. In one embodiment, a variant irreversibly deleted the DNA at the CRISPR enzyme-dependent double strand break sites in 5′->3′ direction, and the resulting modified ends with 3′-OH overhang can better serve HR repairs in presence of repair template. Disclosed herein are constructs that display functional enhancement of the CRISPR-Cas enzymes. […] Fifth, off-target effects in Cas9-RecJ embodied the similar efficiency to Cas9 off-targeting in whole genome sequencing and targeted deep sequencing. […] FIG. 74-FIG. 125 show said new genome editing fusion constructs, knock-out and knock-in efficiency and percent change in efficiency over a control.
The apparent rates of mutations after the action of CRISPR genome editing tools are relatively low in vivo due to outperformance of error-free repair mechanisms. […]

[5] = tested on: HEK293 cells
Method: 1.0×10^5 cells were in the 24 well plate.
Cell culture. HEK 293 cells were maintained in DMEM media with 10% Fetal bovine serum FBS and P/S, at 37° C. in CO2 incubator. 150,000 cells were transferred to a 24 well plate in 50 ml of the growth medium a day before transfection.

With `O=S(=O)([O-])[O-].[Zn+2]` [ZnSO4, zinc sulfate] the “abolished Cas9 activity” value [1] was “up to 90%”, the “uncut dsDNAs not digested any more after ZnSO4 treatment” value [2] was 65% and the “% indels” value ([3]; 80 ZnSO4 (mM) at 12 h, harvest 24 h) was 2.9%. The “% indels” value ([3]; 80 ZnSO4 (mM) at 12 h, harvest 60 h) was 5.4%, the “% indels” value ([3]; 160 ZnSO4 (mM) at 12 h, harvest 24 h) was 1.8% and the “% indels” value ([3]; 160 ZnSO4 (mM) at 12 h, harvest 36 h) was 2.7%. The “% indels” value ([3]; 160 ZnSO4 (mM) at 12 h, harvest 60 h) was 5.8%, the “modified dsDNA detected via T7E1 assay” value ([3]; 48 h hpt with RNP, 80 μM ZnSO4 at 24 hpt, direct) was 12.62% and the “modified dsDNA detected via T7E1 assay” value ([3]; 48 h hpt with RNP, 80 μM ZnSO4 at 24 hpt, media exchange) was 9.86%. The “modified dsDNA detected via T7E1 assay” value ([3]; 48 h hpt with RNP, 160 μM ZnSO4 at 24 hpt, direct) was 3.68%, the “modified dsDNA detected via T7E1 assay” value ([3]; 48 h hpt with RNP, 160 μM ZnSO4 at 24 hpt, media exchange) was 4.96% and the “modified dsDNA detected via T7E1 assay” value ([3]; 72 h hpt with RNP, 80 μM ZnSO4 at 24 hpt, direct) was 2.8%. For the same compound, the “modified dsDNA detected via T7E1 assay” value ([3]; 72 h hpt with RNP, 80 μM ZnSO4 at 24 hpt, media exchange) was 9.32%, the “modified dsDNA detected via T7E1 assay” value ([3]; 72 h hpt with RNP, 160 μM ZnSO4 at 24 hpt, direct) was 1.87% and the “modified dsDNA detected via T7E1 assay” value ([3]; 72 h hpt with RNP, 160 μM ZnSO4 at 24 hpt, media exchange) was 1.41%. For the same compound, the “genome editing efficacy after zinc sulfate treatment” value ([3]; HEK293 with Cas9 variants) was “reduced”, the “quenching of Cas9 activity” value [4] was “effectively quenched Cas9 activity” and the HEK293 cell survival ([5]; 0 to 120 mM zinc sulfate) was “allowed HEK293 cell to survive”. For the same compound, the HEK293 cell survival ([5]; 160 mM and 200 mM zinc sulfate) was “did not allow HEK293 live well without toxicity effect”.
